Measurements from patent publication US20070128217A1 (priority 2003, published 2007).

Columns and labels:
[1] = test system: antibodies in sera from SARS patients (sera 1a, 1b, 2, 6, 37, 62, London, SARS-yellow, SARS-green); assay type: binding, human; design: Binding of serum 6 to linear peptides of protein X1 of SARS-CoV Urbani / Binding of serum 37 to linear peptides of protein X1 of SARS-CoV Urbani / Binding of serum 6 to looped/cyclic peptide (PEPSCAN-ELISA) / Binding of serum 37 to looped/cyclic peptide (PEPSCAN-ELISA) / Binding of serum 37 to looped/cyclic peptides of protein X1 of SARS-CoV Urbani / Binding of serum 6 to linear peptides of protein X2 / Binding of serum 37 to linear peptides of protein X2 / Binding of serum 37 to looped/cyclic peptides of protein X2 of SARS-CoV Urbani / Binding of serum 6 to linear peptides of protein M of SARS-CoV Urbani / Binding of serum 37 to linear peptides of protein M of SARS-CoV Urbani / Binding of serum 6 to looped/cyclic peptides of protein M of SARS-CoV Urbani / Binding of serum 37 to looped/cyclic peptides of protein M of SARS-CoV Urbani / Binding of serum 6 to linear peptides of protein X3 of SARS-CoV Urbani / Binding of serum 37 to linear peptides of protein X3 of SARS-CoV Urbani / Binding of serum 37 to looped/cyclic peptides of protein X3 of SARS-CoV Urbani / Binding of serum 6 to linear peptides of protein X4 of SARS-CoV Urbani / Binding of serum 37 to linear peptides of protein X4 of SARS-CoV Urbani / Binding of serum 37 to looped/cyclic peptides of protein X4 of SARS-CoV Urbani / Binding of serum 6 to linear peptides of protein X5 of SARS-CoV Urbani / Binding of serum 37 to linear peptides of protein X5 of SARS-CoV Urbani / Binding of serum 37 to looped/cyclic peptides of protein X5 of SARS-CoV Urbani / Binding of serum 6 to linear peptides of protein N of SARS-CoV Urbani / Binding of serum 37 to linear peptides of protein N of SARS-CoV Urbani / Binding of serum 6 to linear peptide (PEPSCAN-ELISA) / Binding of serum 1a to looped/cyclic peptides of protein N of SARS-CoV Urbani / Binding of serum 1b to looped/cyclic peptides of protein N of SARS-CoV Urbani / Binding of serum 2 to looped/cyclic peptides of protein N of SARS-CoV Urbani / Binding of serum 6 to looped/cyclic peptides of protein N of SARS-CoV Urbani / Binding of serum 37 to looped/cyclic peptides of protein N of SARS-CoV Urbani / Binding of serum 62 to looped/cyclic peptides of protein N of SARS-CoV Urbani / Binding of serum London to looped/cyclic peptides of protein N of SARS-CoV Urbani / Binding of serum SARS-green to looped/cyclic peptides of protein N of SARS-CoV Urbani: unit not given here
[2] = test system: control sera (pooled serum of ten healthy LUMC hospital workers; commercial negative donor pooled serum from the Dutch bloodbank); assay type: binding, human; design: Binding of Control serum LUMC to linear peptides / Binding of Control serum Blood-bank to linear peptides / Binding of Control serum LUMC to looped peptides / Binding of Control Serum Blood-Bank to Looped peptides / Binding of Control serum LUMC to linear peptides of the protein M of SARS-CoV Urbani / Binding of Control serum Blood-bank to linear peptides of the protein M of SARS-CoV Urbani / Binding of Control serum LUMC to looped peptides of the protein M of SARS-CoV Urbani / Binding of Control Serum Blood-Bank to Looped peptides of the protein M of SARS-CoV Urbani: unit not given here
[3] = test system: rabbit serum obtained by immunizing a rabbit with the SARS-CoV strain Frankfurt 1; assay type: binding; design: Binding of a rabbit serum to linear peptides / Binding of a rabbit serum to looped peptides / Rabbit serum linear peptides / Rabbit serum looped peptides / Binding of a rabbit serum to linear peptides of protein N of SARS-CoV Urbani (Rabbit serum linear peptides) / Binding of a rabbit serum to looped/cyclic peptides of protein N of SARS-CoV Urbani (Rabbit serum looped peptides): unit not given here

HITMTTVYHITVSQI
Binding of serum 1a to linear peptides of protein X2 [1]: 0.6
Binding of serum 1a to looped/cyclic peptides of protein X2 of SARS-CoV Urbani [1]: 0.6
Binding of serum 1b to linear peptides of protein X2 [1]: 0.6
Binding of serum 1b to looped/cyclic peptides of protein X2 of SARS-CoV Urbani [1]: 0.6
Binding of serum 2 to linear peptides of protein X2 [1]: 0.5
Binding of serum 2 to looped/cyclic peptides of protein X2 of SARS-CoV Urbani [1]: 0.3
Binding of serum 6 to linear peptides of protein X2 [1]: 0.4
Binding of serum 6 to looped/cyclic peptides of protein X2 of SARS-CoV Urbani [1]: 0.3
Binding of serum 37 to linear peptides of protein X2 [1]: 0.6
Binding of serum 37 to looped/cyclic peptides of protein X2 of SARS-CoV Urbani [1]: 0.6
Binding of serum 62 to linear peptides of protein X2 [1]: 0.3
Binding of serum 62 to looped/cyclic peptides of protein X2 of SARS-CoV Urbani [1]: 0.7
Binding of serum London to linear peptides of protein X2 [1]: 0.4
Binding of serum London to looped/cyclic peptides of protein X2 of SARS-CoV Urbani [1]: 0.2
Binding of serum SARS-green to linear peptides of protein X2 [1]: 0.2
Binding of serum SARS-green to looped/cyclic peptides of protein X2 of SARS-CoV Urbani [1]: 0.4
Binding of serum SARS-yellow to linear peptides of protein X2 [1]: 0.7
Binding of serum SARS-yellow to looped/cyclic peptides of protein X2 of SARS-CoV Urbani [1]: 0.5
Binding of Control Serum Blood-Bank to Looped peptides [2]: 0.7
Binding of Control serum Blood-bank to linear peptides [2]: 0.5
Binding of Control serum LUMC to linear peptides [2]: 0.5
Binding of Control serum LUMC to looped peptides [2]: 0.6
Binding of a rabbit serum to linear peptides [3]: 0.7
Binding of a rabbit serum to looped peptides [3]: 0.4

YKGFQFICNLLLLFV
Binding of serum 1a to linear peptides of protein X1 of SARS-CoV Urbani [1]: 0.9
Binding of serum 1a to looped/cyclic peptide (PEPSCAN-ELISA) [1]: 0.3
Binding of serum 1b to linear peptides of protein X1 of SARS-CoV Urbani [1]: 0.8
Binding of serum 1b to looped/cyclic peptide (PEPSCAN-ELISA) [1]: 0.0
Binding of serum 2 to linear peptides of protein X1 of SARS-CoV Urbani [1]: 0.9
Binding of serum 2 to looped/cyclic peptide (PEPSCAN-ELISA) [1]: 0.0
Binding of serum 6 to linear peptides of protein X1 of SARS-CoV Urbani [1]: 0.9
Binding of serum 6 to looped/cyclic peptide (PEPSCAN-ELISA) [1]: 0.3
Binding of serum 37 to linear peptides of protein X1 of SARS-CoV Urbani [1]: 0.7
Binding of serum 37 to looped/cyclic peptide (PEPSCAN-ELISA) [1]: 0.2
Binding of serum 62 to linear peptides of protein X1 of SARS-CoV Urbani [1]: 1.0
Binding of serum 62 to looped/cyclic peptide (PEPSCAN-ELISA) [1]: 0.3
Binding of serum London to linear peptides of protein X1 of SARS-CoV Urbani [1]: 0.8
Binding of serum London to looped/cyclic peptide (PEPSCAN-ELISA) [1]: 0.2
Binding of serum SARS-green to linear peptides of protein X1 of SARS-CoV Urbani [1]: 0.4
Binding of serum SARS-green to looped/cyclic peptide (PEPSCAN-ELISA) [1]: 0.3
Binding of serum SARS-yellow to linear peptides of protein X1 of SARS-CoV Urbani [1]: 0.6
Binding of serum SARS-yellow to looped/cyclic peptide (PEPSCAN-ELISA) [1]: 0.0
Binding of Control Serum Blood-Bank to Looped peptides [2]: 0.4
Binding of Control serum Blood-bank to linear peptides [2]: 1.0
Binding of Control serum LUMC to linear peptides [2]: 0.8
Binding of Control serum LUMC to looped peptides [2]: 0.4
Binding of a rabbit serum to linear peptides [3]: 0.3
Binding of a rabbit serum to looped peptides [3]: 0.0

LQTLVLKMLHSSSLT
Binding of serum 1a to linear peptides of protein X2 [1]: 0.7
Binding of serum 1a to looped/cyclic peptides of protein X2 of SARS-CoV Urbani [1]: 0.4
Binding of serum 1b to linear peptides of protein X2 [1]: 0.5
Binding of serum 1b to looped/cyclic peptides of protein X2 of SARS-CoV Urbani [1]: 0.4
Binding of serum 2 to linear peptides of protein X2 [1]: 0.5
Binding of serum 2 to looped/cyclic peptides of protein X2 of SARS-CoV Urbani [1]: 0.3
Binding of serum 6 to linear peptides of protein X2 [1]: 0.4
Binding of serum 6 to looped/cyclic peptides of protein X2 of SARS-CoV Urbani [1]: 0.5
Binding of serum 37 to linear peptides of protein X2 [1]: 0.6
Binding of serum 37 to looped/cyclic peptides of protein X2 of SARS-CoV Urbani [1]: 0.3
Binding of serum 62 to linear peptides of protein X2 [1]: 0.6
Binding of serum 62 to looped/cyclic peptides of protein X2 of SARS-CoV Urbani [1]: 0.4
Binding of serum London to linear peptides of protein X2 [1]: 0.4
Binding of serum London to looped/cyclic peptides of protein X2 of SARS-CoV Urbani [1]: 0.5
Binding of serum SARS-green to linear peptides of protein X2 [1]: 0.5
Binding of serum SARS-green to looped/cyclic peptides of protein X2 of SARS-CoV Urbani [1]: 0.3
Binding of serum SARS-yellow to linear peptides of protein X2 [1]: 0.7
Binding of serum SARS-yellow to looped/cyclic peptides of protein X2 of SARS-CoV Urbani [1]: 0.3
Binding of Control Serum Blood-Bank to Looped peptides [2]: 0.5
Binding of Control serum Blood-bank to linear peptides [2]: 0.7
Binding of Control serum LUMC to linear peptides [2]: 0.5
Binding of Control serum LUMC to looped peptides [2]: 0.5
Binding of a rabbit serum to linear peptides [3]: 0.3
Binding of a rabbit serum to looped peptides [3]: 0.3

QFLYLYALIYFLQCI
Binding of serum 1a to linear peptides of protein X1 of SARS-CoV Urbani [1]: 0.7
Binding of serum 1a to looped/cyclic peptide (PEPSCAN-ELISA) [1]: 0.5
Binding of serum 1b to linear peptides of protein X1 of SARS-CoV Urbani [1]: 0.5
Binding of serum 1b to looped/cyclic peptide (PEPSCAN-ELISA) [1]: 0.3
Binding of serum 2 to linear peptides of protein X1 of SARS-CoV Urbani [1]: 0.5
Binding of serum 2 to looped/cyclic peptide (PEPSCAN-ELISA) [1]: 0.3
Binding of serum 6 to linear peptides of protein X1 of SARS-CoV Urbani [1]: 0.4
Binding of serum 6 to looped/cyclic peptide (PEPSCAN-ELISA) [1]: 0.2
Binding of serum 37 to linear peptides of protein X1 of SARS-CoV Urbani [1]: 0.6
Binding of serum 37 to looped/cyclic peptide (PEPSCAN-ELISA) [1]: 0.5
Binding of serum 62 to linear peptides of protein X1 of SARS-CoV Urbani [1]: 0.5
Binding of serum 62 to looped/cyclic peptide (PEPSCAN-ELISA) [1]: 0.5
Binding of serum London to linear peptides of protein X1 of SARS-CoV Urbani [1]: 0.2
Binding of serum London to looped/cyclic peptide (PEPSCAN-ELISA) [1]: 0.2
Binding of serum SARS-green to linear peptides of protein X1 of SARS-CoV Urbani [1]: 0.2
Binding of serum SARS-green to looped/cyclic peptide (PEPSCAN-ELISA) [1]: 0.2
Binding of serum SARS-yellow to linear peptides of protein X1 of SARS-CoV Urbani [1]: 0.5
Binding of serum SARS-yellow to looped/cyclic peptide (PEPSCAN-ELISA) [1]: 0.3
Binding of Control Serum Blood-Bank to Looped peptides [2]: 0.5
Binding of Control serum Blood-bank to linear peptides [2]: 0.5
Binding of Control serum LUMC to linear peptides [2]: 0.4
Binding of Control serum LUMC to looped peptides [2]: 0.6
Binding of a rabbit serum to linear peptides [3]: 0.1
Binding of a rabbit serum to looped peptides [3]: 0.4

SMWSFNPETNILLNV
Binding of serum 1a to linear peptides of protein M of SARS-CoV Urbani [1]: 0.8
Binding of serum 1a to looped/cyclic peptides of protein M of SARS-CoV Urbani [1]: 0.7
Binding of serum 1b to linear peptides of protein M of SARS-CoV Urbani [1]: 0.7
Binding of serum 1b to looped/cyclic peptides of protein M of SARS-CoV Urbani [1]: 0.1
Binding of serum 2 to linear peptides of protein M of SARS-CoV Urbani [1]: 0.5
Binding of serum 2 to looped/cyclic peptides of protein M of SARS-CoV Urbani [1]: 0.8
Binding of serum 6 to linear peptides of protein M of SARS-CoV Urbani [1]: 0.5
Binding of serum 6 to looped/cyclic peptides of protein M of SARS-CoV Urbani [1]: 0.6
Binding of serum 37 to linear peptides of protein M of SARS-CoV Urbani [1]: 0.5
Binding of serum 37 to looped/cyclic peptides of protein M of SARS-CoV Urbani [1]: 0.8
Binding of serum 62 to linear peptides of protein M of SARS-CoV Urbani [1]: 0.5
Binding of serum 62 to looped/cyclic peptides of protein M of SARS-CoV Urbani [1]: 0.7
Binding of serum London to linear peptides of protein M of SARS-CoV Urbani [1]: 0.4
Binding of serum London to looped/cyclic peptides of protein M of SARS-CoV Urbani [1]: 0.2
Binding of serum SARS-green to linear peptides of protein M of SARS-CoV Urbani [1]: 0.5
Binding of serum SARS-green to looped/cyclic peptides of protein M of SARS-CoV Urbani [1]: 0.2
Binding of serum SARS-yellow to linear peptides of protein M of SARS-CoV Urbani [1]: 0.2
Binding of serum SARS-yellow to looped/cyclic peptides of protein M of SARS-CoV Urbani [1]: 0.7
Binding of Control Serum Blood-Bank to Looped peptides of the protein M of SARS-CoV Urbani [2]: 0.8
Binding of Control serum Blood-bank to linear peptides of the protein M of SARS-CoV Urbani [2]: 0.8
Binding of Control serum LUMC to linear peptides of the protein M of SARS-CoV Urbani [2]: 0.8
Binding of Control serum LUMC to looped peptides of the protein M of SARS-CoV Urbani [2]: 0.7
Rabbit serum linear peptides [3]: 0.2
Rabbit serum looped peptides [3]: 0.4
